From patent US11957696B2 (Propella Therapeutics, Inc., priority 2021, dated 2024)
Read-outs that look alike come from different tables or passages of the source.

Key:
[1] = PK of single IM abiraterone decanoate in chemically castrated monkeys (abiraterone plasma); type: in vivo, cynomolgus monkeys; conditions: single IM 10 mg/kg
ACTH = ACTH analysis (plasma) in 13-week study; type: in vivo, cynomolgus monkeys
Protocol: Sample Collection for ACTH Analysis (Plasma): Blood samples (approximately 2.5 mL) were collected from all animals via the femoral vein for determination of the plasma concentrations of ACTH. The animals were fasted prior to blood collection except one deviation.

[2] = cynomolgus monkey, in vivo
Protocol: Test system/animals: gonadally intact, sexually mature, male cynomolgus monkeys. Administration of Test Materials: The vehicle control and test article were administered once every 2 weeks for 13 weeks (Days 1, 15, 29, 43, 57, and 71) during the study via intramuscular injection. […] The dose levels were 20, 60, or 200 mg/kg/dose and administered at a dose volume of 0.10, 0.15, and 0.25 mL/kg/site, respectively. The control group received the vehicle control in the same manner as the treated groups at a dose volume of 0.25 mL/kg/site.
The vehicle control and test article formulations were administered via bolus intramuscular injection into the epaxial muscles of the lumbar back. Animals at 0 and 200 mg/kg/dose were dosed in 4 dose sites, animals at 20 mg/kg/dose were dosed in 1 dose site, and animals at 60 mg/kg/dose were dosed in 2 dose sites. The needle (23-gauge, ⅝-inch) was inserted perpendicular to the skin surface. The location of the injection site was documented for each dose. In addition, each injection site was marked with a single large dot at the exact site of needle insertion, for purposes of erythema and swelling evaluation. Each injection site was remarked at least once weekly and prior to necropsy.
Individual doses were based on the most recent body weights. Formulations were warmed at 35° C. (±5° C.) for at least 1 hour prior to dosing.
The following parameters and endpoints were evaluated in this study: mortality, clinical signs, body weights, body weight gains, ophthalmology and electrocardiographic examinations, clinical pathology parameters (hematology, coagulation, clinical chemistry, and urinalysis), LH and ACTH analyses, toxicokinetic parameters, gross necropsy findings, organ weights, and histopathologic examinations. Statistical analyses were performed using Group Pair-wise Comparisons (general ANOVA).

LH = LH analysis (serum) in 13-week study; type: in vivo, cynomolgus monkeys; design: LH: unit not given here
Protocol: Sample Collection for LH Analysis (Serum): Blood samples (approximately 2.5 mL) were collected from all animals via the femoral vein for determination of the serum concentrations of LH. The animals were fasted prior to blood collection except one deviation.

[3] = Abiraterone plasma exposure from abiraterone decanoate formulations with and without benzyl benzoate; type: in vivo; conditions: corn oil 70%, benzyl alcohol 10%, benzyl benzoate 20% compared with corn oil 90%, same dose, monkeys
From the text: In some embodiments, the abiraterone prodrug formulation can comprise a combination of benzyl alcohol and benzyl benzoate as cosolvents. In some embodiments, the benzyl alcohol can be present in an amount of about 0-20% (e.g., 0-15% or 0-10%, such as about 10%) of the solvent, and benzyl benzoate can be present in an amount of about 0-50% (e.g., 0-35% or 0-30%, such as about 20%) of the solvent, wherein the balance of the solvent can be any one or more of the pharmaceutically acceptable oil described herein, such as corn oil, castor oil, sesame oil, peanut oil, cottonseed oil, and/or Miglyol 812, etc.

[4] = Toxicokinetics of abiraterone decanoate and abiraterone in 13-week study; type: in vivo, cynomolgus monkeys; conditions: for AUC(0-t) / Cmax: male, cynomolgus monkey, in vivo, im; for AUC(0-t): Abiraterone Decanoate plasma AUC0-[…] (mean); for Cmax: Abiraterone Decanoate plasma Cmax (mean)
Protocol: Toxicokinetic parameters were obtained for each animal on Days 1, 29, and 71. […] A single 144-hour sample was collected outside of the allowable window for timed collections from one Animal on Day 29 and the actual time for this time point was used in the toxicokinetic data analysis. Nominal time was used for graphic representation and concentration table generation. For each animal, the following toxicokinetic parameters were determined: maximum observed plasma concentration (Cmax), time of maximum observed plasma concentration (Tmax), and area under the plasma concentration-time curve (AUC).

[5] = DVS water uptake of abiraterone decanoate forms; type: physicochemical; conditions: Forms A, B, and C

CCCCCCCCCC(=O)O[C@H]1CC[C@@]2(C)C(=CC[C@@H]3[C@@H]2CC[C@]2(C)C(c4cccnc4)=CC[C@@H]32)C1 [Abiraterone Decanoate, abiraterone decanoate]
abiraterone in the plasma at Day 70 [1]: measurable | ACTH fold change of treated group mean relative to pretreatment (Day −1) mean (ACTH; 20 mg/kg/dose, Day 8): 1.72× | ACTH fold change of treated group mean relative to pretreatment (Day −1) mean (ACTH; 20 mg/kg/dose, Day 15): 2.63× | ACTH fold change of treated group mean relative to pretreatment (Day −1) mean (ACTH; 20 mg/kg/dose, Day 78): 2.30×* | ACTH fold change of treated group mean relative to pretreatment (Day −1) mean (ACTH; 20 mg/kg/dose, Day 85): 1.89×* | ACTH fold change of treated group mean relative to pretreatment (Day −1) mean (ACTH; 60 mg/kg/dose, Day 8): 2.55×* | ACTH fold change of treated group mean relative to pretreatment (Day −1) mean (ACTH; 60 mg/kg/dose, Day 15): 2.35×* | ACTH fold change of treated group mean relative to pretreatment (Day −1) mean (ACTH; 60 mg/kg/dose, Day 78): 1.33×* | ACTH fold change of treated group mean relative to pretreatment (Day −1) mean (ACTH; 60 mg/kg/dose, Day 85): 1.36×* | ACTH fold change of treated group mean relative to pretreatment (Day −1) mean (ACTH; 200 mg/kg/dose, Day 8): 4.90×* | ACTH fold change of treated group mean relative to pretreatment (Day −1) mean (ACTH; 200 mg/kg/dose, Day 15): 5.14×* | ACTH fold change of treated group mean relative to pretreatment (Day −1) mean (ACTH; 200 mg/kg/dose, Day 78): 4.65×* | ACTH fold change of treated group mean relative to pretreatment (Day −1) mean (ACTH; 200 mg/kg/dose, Day 85): 4.66×* | ACTH concentrations (ACTH; males at ≥20 mg/kg/dose): increases | adrenal gland changes [2]: minimal to moderate cortical hypertrophy | clinical observations [2]: swelling and/or nodules at the injection sites | findings in the lung [2]: minimal to moderate granulomatous inflammation | ophthalmology findings, qualitative or quantitative ECG parameters [2]: no effect | test article-related changes in the epididymis [2]: mild to severe reduced luminal sperm and/or minimal to mild increased germ cell debris | test article-related changes in the prostate gland [2]: mild to moderate prostate gland atrophy | test article-related changes in the seminal vesicle [2]: minimal to mild seminal vesicle atrophy | test article-related changes in the testes [2]: minimal to moderate germ cell depletion and minimal to mild Leydig cell hypertrophy | test article-related changes in the thymus [2]: minimal to mild increased lymphocytes | test article-related findings in the mammary gland [2]: minimal to mild lobular and/or duct hyperplasia | microscopic findings at terminal necropsy ([2]; 20 mg/kg): test article-related microscopic findings | albumin concentration ([2]; 20 mg/kg/day): minimal decreases | microscopic findings at terminal necropsy ([2]; 60 mg/kg): test article-related microscopic findings | mean corpuscular volume (MCV) and mean corpuscular hemoglobin (MCH) ([2]; 200 mg/kg): minimal decreases | red cell distribution width (RDW) ([2]; 200 mg/kg): minimal increase | highest non-severely toxic dose ([2]; male, 13 weeks): 60 mg/kg/dose | LH (LH; 20 mg/kg, N 4, Day 8): 1.67 | LH (LH; 20 mg/kg, N 4, Day 15): 1.67 | LH (LH; 20 mg/kg, N 4, Day 78): 5.67 | LH (LH; 20 mg/kg, N 4, Day 85): 3.12 | LH (LH; 60 mg/kg, N 4, Day 8): 2.78 | LH (LH; 60 mg/kg, N 4, Day 15): 2.73 | LH (LH; 60 mg/kg, N 4, Day 78): 7.12 | LH (LH; 60 mg/kg, N 4, Day 85): 7.07 | LH (LH; 200 mg/kg, N 6, Day 8): 1.98 | LH (LH; 200 mg/kg, N 6, Day 15): 2.33 | LH (LH; 200 mg/kg, N 6, Day 78): 5.04 | LH (LH; 200 mg/kg, N 6, Day 85): 5.27 | LH concentrations (LH; following abiraterone decanoate administration): no clear effects | abiraterone plasma exposure [3]: much higher abiraterone plasma exposure | plasma exposures to abiraterone (Cmax and AUC) compared with oral abiraterone acetate toxicology studies ([4]; IM administration, cynomolgus monkeys): lower than levels achieved in toxicology studies with abiraterone acetate | AUC(0-t) ([4]; 20 mg/kg): 888 ng·h/mL | AUC(0-t) ([4]; 60 mg/kg): 2040 ng·h/mL | AUC(0-t) ([4]; 200 mg/kg): 13100 ng·h/mL | Cmax ([4]; 200 mg/kg): 66.6 ng/mL | Cmax ([4]; cynomolgus, 20 mg/kg): 6.27 ng/mL | AUC(0-t) ([4]; cynomolgus, 60 mg/kg): 2190 ng·h/mL | Cmax ([4]; cynomolgus, 60 mg/kg): 15.8 ng/mL | AUC(0-t) ([4]; cynomolgus, 200 mg/kg): 12400 ng·h/mL | Cmax ([4]; cynomolgus, 200 mg/kg): 71.3 ng/mL | DVS Max H2O uptake [5]: N/A-non-hygroscopic
